Results from patent publication US20260256794A1, “Oral Dynamine Formulations and Methods Therefor” (Ortho-Nutra, LLC, priority 2023, published 2026).

How the values were obtained:
Type in all cases: in vivo, human
subjects [1] = assay: VAS-Well-Being; parameters: VAS-Well-Being rating, Mean / VAS-Well-Being changes from baseline, Mean Difference ± SE / VAS-Well-Being area under the curve, Mean Difference ± SE / VAS-Well-Being area under the curve, Mean: scale not given here
Description: (§1) The inventors have discovered various compositions and methods of improving various indices of neurological and neuroenergetic functions by administering 100 mg (once daily) dosages of DYNAMINE™ (dosage between 1.0 and 1.4 mg/kg) as described in the following:
(§2) All neuroenergetic tests as listed below were performed and data were collected after 0 and 4 days of assigned supplements (with acute effects also measured at day 4 over 180 minutes):
All VAS Measurement (Energy, Sustained Energy, Mental Stamina, Ability to Focus, Ability to Concentrate, Motivation to Accomplish Difficult Tasks, Drive, Vigor, Level of Positive Outlook, Mood, Feelings of Well-Being, Tolerate Stress); Day 0: Two tests were completed. The average of both scores was computed and this value was used in all statistical analysis. Day 4 (0 minutes after ingesting dose #4): Two tests were completed. The average of both scores was computed and this value was used in all statistical analysis. Day 4 (60, 120, and 180 minutes after ingesting dose #4): One test was completed at each time point.
Neuroenergic parameters are inherently subjective, nevertheless significant in human behavior and well-being. To allow for a standardization among different subjects, the following experiments were performed using a visual analog scale using anchor statements (lowest possible/highest possible) in which subjects were asked to rate their subjective experience with respect to the specific neuroenergic parameters tested.
VAS-Well-Being: In this subjective test, subjects were asked to rate their personal level of energy on a VAS scale using the prompt of “My feeling of well-being right now is . . . ” (with rating lowest possible to highest possible)”. Results were collected as noted above and Table 34 provides exemplary results for Day 0 versus Day 4 ratings, whereas Table 35 provides exemplary acute results measured at Day 4 over a duration of 180 minutes.

subjects [2] = assay: Trail Making Test; settings: for Trail Making Test score, Mean: lower = faster
Description: as §1, §2
Trail Making Test: Day 0: Two blocks of three tests were completed. Each block of three tests was separated by 10 minutes. The median of each block was taken and then those two scores were averaged. This value was used in all statistical analysis. Day 4: Three tests were completed at four time points: after 0, 60, 120, and 180 minutes of taking dose #4. The median of the three tests at each time point was used in all statistical analysis.
The trail making test has at least two test conditions. In Condition A, a subject is asked to draw lines to connect circled numbers in a numerical sequence (e.g., 1-2-3, etc.) as rapidly in possible. In Condition B the subject is asked to draw lines to connect circled numbers and letters in an alternating numeric and alphabetic sequence (i.e., 1-A-2-B, etc.) as rapidly as possible. Although trail making tests are conceptually very simple, they are thought to reflect a wide variety of cognitive processes including attention, visual search and scanning, sequencing and shifting, psychomotor speed, abstraction, flexibility, ability to execute and modify a plan of action, and ability to maintain two trains of thought simultaneously.

subjects [3] = assay: Hemodynamics: heart rate
Description: Hemodynamics Systolic Blood Pressure, Diastolic Blood Pressure, Heart Rate were taken Pre and Post Stroop Test on Day 0; Pre and Post Stroop Test after 4 Days of Supplementation 0, 60, 120, and 180 minutes after ingestion of 4th dose.
For hemodynamic parameters, systolic blood pressure, diastolic blood pressure, and heart rate were taken pre- and post-Stroop Test on Day 0, and pre- and post-Stroop Test after 4 Days of Supplementation 0, 60, 120, and 180 minutes after ingestion of 4th dose.

[4] = 100 mg once daily, Day 4, 0-180 min, vs Group A (placebo)
[5] = 100 mg once daily, Day 4, 0 min after dose #4
[6] = 100 mg once daily, Day 4, 60 min-0 min, vs Group A (placebo)
[7] = 100 mg once daily, Day 4, 60 min after dose #4
[8] = 100 mg once daily, Day 4, 120 min-0 min, vs Group A (placebo)
[9] = 100 mg once daily, Day 4, 120 min after dose #4
[10] = 100 mg once daily, Day 4, 180 min-0 min, vs Group A (placebo)
[11] = 100 mg once daily, Day 4, 180 min after dose #4

SMILES: COc1nc2c(c(=O)n1C)n(C)c(=O)n2C [methylliberine, 2-methoxy-1,7,9-trimethylpurine-6,8-dione]
- VAS-Well-Being area under the curve, Mean (subjects [1]; 100 mg once daily, Day 4, 0-180 min): 1239
- VAS-Well-Being area under the curve, Mean Difference ± SE (subjects [1]; [4]): 14.9 ± 43.0
- VAS-Well-Being area under the curve, effect size d (subjects [1]; [4]): −0.05
- VAS-Well-Being rating, Mean (subjects [1]; [5]): 6.4
- VAS-Well-Being changes from baseline, Mean Difference ± SE (subjects [1]; [6]): 0.16 ± 0.16
- VAS-Well-Being changes from baseline, effect size d (subjects [1]; [6]): 0.22
- VAS-Well-Being rating, Mean (subjects [1]; [7]): 6.8
- VAS-Well-Being changes from baseline, Mean Difference ± SE (subjects [1]; [8]): 0.46 ± 0.29
- VAS-Well-Being changes from baseline, effect size d (subjects [1]; [8]): 0.45
- VAS-Well-Being rating, Mean (subjects [1]; [9]): 7.3
- VAS-Well-Being changes from baseline, Mean Difference ± SE (subjects [1]; [10]): 0.54 ± 1.34
- VAS-Well-Being changes from baseline, effect size d (subjects [1]; [10]): 0.52
- VAS-Well-Being rating, Mean (subjects [1]; [11]): 7.2
- VAS-Well-Being rating, Mean (subjects [1]; Day 0 (before supplementation)): 6.8
- Trail Making Test score, Mean (subjects [2]; [5]): 21.6
- Trail Making Test score, Mean (subjects [2]; [7]): 20.4
- Trail Making Test score, Mean (subjects [2]; [9]): 20.2
- Trail Making Test score, Mean (subjects [2]; [11]): 20.3
- improvement in TMT performance (subjects [2]; 4-days daily supplementation, Day 4 vs Day 0, p<0.001): +11.1%
- Trail Making Test score, Mean (subjects [2]; Day 0 (before supplementation)): 24.3
- Heart rate, Mean (subjects [3]; 100 mg once daily, Day 4): 69.8 beats/min
- Heart rate, Mean (subjects [3]; Day 0 (before supplementation)): 71.4 beats/min
